The values that follow are results of earlier work, collected in US20030035834A1, “Sustained release verapamil pharmaceutical composition free of food effect and a method for alleviating food effect in drug release” (priority 2000, published 2003).

Where two headings read alike, the source gives them in different places.

As to `COc1ccc2c3c1O[C@H]1C(=O)CC[C@@]4(O)[C@@H](C2)N(C)CC[C@]314` [oxycodone], the “difference in availability, fasted vs fed” value is listed as “no difference” (extended release tablets) and “significant difference” (immediate release aqueous solution).
